In the series the test system is Mus musculus. The experiment in a line: Compound was evaluated for its lethal dose (LD50) by dissolving in 5 microL of isotonic saline and injected intracranially in mice which resulted in the death of 50% of the treated animals within 1 hour. It is filed as ADME, organism-based. The conditions noted are these: in vivo, other.

On to `CC1=NCCc2cc(O)c(O)cc21`, for which the LD50 came to 31.1 µg. The result for `CC1=NCCc2c1cc(O)c(O)c2O` reads 38.9 µg.
